From patent US10934285B2, “Compounds and compositions for inhibiting the activity of SHP2” (Novartis AG, priority 2016, dated 2021)

Molecular target: SHP2 (Homo sapiens (Human), UniProt Q06124)
Assay: SHP2 Allosteric Inhibition Assay
Assay type: biochemical
Details: 0.5 nM SHP2 activated with 0.5 μM peptide IRS1_pY1172(dPEG8)pY1222; surrogate substrate DiFMUP; prompt fluorescence
Text: SHP2 Allosteric Inhibition Assay
SHP2 is allosterically activated through binding of bis-tyrosyl-phorphorylated peptides to its Src Homology 2 (SH2) domains. The latter activation step leads to the release of the auto-inhibitory interface of SHP2, which in turn renders the SHP2 protein tyrosine phosphatase (PTP) active and available for substrate recognition and reaction catalysis. The catalytic activity of SHP2 was monitored using the surrogate substrate DiFMUP in a prompt fluorescence assay format.
After 30-60 minutes incubation at 25° C., the surrogate substrate DiFMUP (Invitrogen, cat #D6567) was added to the reaction and incubated at 25° C. for 30 minutes. […] The inhibitor dose response curves were analyzed using normalized IC50 regression curve fitting with control based normalization.

IC50 [nM]	SMILES
3	CC1(N)CCN(c2nnc(Sc3cccc(NC(=O)C4=C(O)CN(c5ccccc5)C4=O)c3Cl)c(N)n2)CC1 [Example 52, N-(3-((5-amino-3-(4-amino-4-methylpiperidin-1-yl)-1,2,4-triazin-6-yl)thio)-2-chlorophenyl)-4-hydroxy-2-oxo-1-phenyl-2,5-dihydro-1H-pyrrole-3-carboxamide]
4.4	CC1(N)CCN(c2cnc(Sc3cccc(NC(=O)C4=C(O)CN(c5ccccc5)C4=O)c3Cl)c(N)n2)CC1 [Example 53, N-(3-((3-amino-5-(4-amino-4-methylpiperidin-1-yl)pyrazin-2-yl)thio)-2-chlorophenyl)-4-hydroxy-2-oxo-1-phenyl-2,5-dihydro-1H-pyrrole-3-carboxamide]
7.3	CN1C(=O)C(C(=O)Nc2cccc(Sc3ncc(N4CCC(C)(N)CC4)nc3N)c2Cl)=C(O)C1Cc1ccccc1 (stereo not shown) [Example 54, N-(3-((3-amino-5-(4-amino-4-methylpiperidin-1-yl)pyrazin-2-yl)thio)-2-chlorophenyl)-5-benzyl-4-hydroxy-1-methyl-2-oxo-2,5-dihydro-1H-pyrrole-3-carboxamide]
2.8	CCC1C(O)=C(C(=O)Nc2cccc(Sc3ncc(N4CCC(C)(N)CC4)nc3N)c2Cl)C(=O)N1C (stereo not shown) [Example 55, N-(3-((3-amino-5-(4-amino-4-methylpiperidin-1-yl)pyrazin-2-yl)thio)-2-chlorophenyl)-5-ethyl-4-hydroxy-1-methyl-2-oxo-2,5-dihydro-1H-pyrrole-3-carboxamide]
6.6	CNC1(C)CCN(c2cnc(Sc3cccc(NC(=O)C4=C(O)CN(c5ccccc5)C4=O)c3Cl)c(N)n2)CC1 [Example 56, N-(3-((3-amino-5-(4-methyl-4-(methylamino)piperidin-1-yl)pyrazin-2-yl)thio)-2-chlorophenyl)-4-hydroxy-2-oxo-1-phenyl-2,5-dihydro-1H-pyrrole-3-carboxamide]
11	C[C@@H]1CN(c2cnc(Sc3cccc(NC(=O)C4=C(O)CN(c5ccccc5)C4=O)c3Cl)c(N)n2)C[C@H](C)N1 [Example 57, N-(3-((3-amino-5-(cis-3,5-dimethylpiperazin-1-yl)pyrazin-2-yl)thio)-2-chlorophenyl)-4-hydroxy-2-oxo-1-phenyl-2,5-dihydro-1H-pyrrole-3-carboxamide]
72	CC1(N)CCN(c2cnc(Sc3cccc(NC(=O)c4c(O)c5ccccc5[nH]c4=O)c3Cl)c(N)n2)CC1 [Example 58, N-(3-((3-Amino-5-(4-amino-4-methylpiperidin-1-yl)pyrazin-2-yl)thio)-2-chlorophenyl)-4-hydroxy-2-oxo-1,2-dihydroquinoline-3-carboxamide]
< 3	CN1C(=O)C(C(=O)Nc2cccc(Sc3ncc(N4CCC(C)(N)CC4)nc3N)c2Cl)=C(O)C1(C)C [Example 59, N-(3-((3-amino-5-(4-amino-4-methylpiperidin-1-yl)pyrazin-2-yl)thio)-2-chlorophenyl)-4-hydroxy-1,5,5-trimethyl-2-oxo-2,5-dihydro-1H-pyrrole-3-carboxamide]
11	O=C(Nc1cccc(Sc2ccc3nc(N4CCCCC4)[nH]c3n2)c1Cl)C1=C(O)[C@H](Cc2ccccc2)NC1=O [Example 60, (S)-5-benzyl-N-(2-chloro-3-((2-(piperidin-1-yl)-3H-imidazo[4,5-b]pyridin-5-yl)thio)phenyl)-4-hydroxy-2-oxo-2,5-dihydro-1H-pyrrole-3-carboxamide]
22	CN1C(=O)C(C(=O)Nc2cccc(Sc3ccc4nc(N5CCCCC5)[nH]c4n3)c2Cl)=C(O)C1Cc1ccccc1 (stereo not shown) [Example 61, 5-benzyl-N-(2-chloro-3-((2-(piperidin-1-yl)-3H-imidazo[4,5-b]pyridin-5-yl)thio)phenyl)-4-hydroxy-1-methyl-2-oxo-2,5-dihydro-1H-pyrrole-3-carboxamide]
25	CCC1C(O)=C(C(=O)Nc2cccc(Sc3ccc4nc(N5CCCCC5)[nH]c4n3)c2Cl)C(=O)N1C (stereo not shown) [Example 62, N-(2-chloro-3-((2-(piperidin-1-yl)-3H-imidazo[4,5-b]pyridin-5-yl)thio)phenyl)-5-ethyl-4-hydroxy-1-methyl-2-oxo-2,5-dihydro-1H-pyrrole-3-carboxamide]
52	CCC1C(O)=C(C(=O)Nc2cccc(Sc3ccc4nc(N5CCCCC5)[nH]c4n3)c2Cl)C(=O)N1c1ccccc1 (stereo not shown) [Example 63, N-(2-chloro-3-((2-(piperidin-1-yl)-3H-imidazo[4,5-b]pyridin-5-yl)thio)phenyl)-5-ethyl-4-hydroxy-2-oxo-1-phenyl-2,5-dihydro-1H-pyrrole-3-carboxamide]
90	O=C(Nc1cccc(Sc2ccc3nc(N4CCCCC4)[nH]c3n2)c1Cl)C1=C(O)[C@H](c2ccccc2)NC1=O [Example 64, (S)-N-(2-chloro-3-((2-(piperidin-1-yl)-3H-imidazo[4,5-b]pyridin-5-yl)thio)phenyl)-4-hydroxy-2-oxo-5-phenyl-2,5-dihydro-1H-pyrrole-3-carboxamide]
42	CN1C(=O)C(C(=O)Nc2cccc(Sc3ccc4nc(N5CCCCC5)[nH]c4n3)c2Cl)=C(O)C1(C)C [Example 65, N-(2-chloro-3-((2-(piperidin-1-yl)-3H-imidazo[4,5-b]pyridin-5-yl)thio)phenyl)-4-hydroxy-1,5,5-trimethyl-2-oxo-2,5-dihydro-1H-pyrrole-3-carboxamide]
17	CC1(N)CCN(c2cnc(Sc3cccc(NC(=O)C4=C(O)CN(c5ccccc5)C4=O)c3)c(N)n2)CC1 [Example 66, N-(3-((3-Amino-5-(4-amino-4-methylpiperidin-1-yl)pyrazin-2-yl)thio)phenyl)-4-hydroxy-2-oxo-1-phenyl-2,5-dihydro-1H-pyrrole-3-carboxamide]
4	CC1(N)CCN(c2cnc(Sc3cccc(NC(=O)C4=C(O)CN(c5ccccc5)C4=O)c3C(F)(F)F)c(N)n2)CC1 [Example 67, N-(3-((3-Amino-5-(4-amino-4-methylpiperidin-1-yl)pyrazin-2-yl)thio)-2-(trifluoromethyl)phenyl)-4-hydroxy-2-oxo-1-phenyl-2,5-dihydro-1H-pyrrole-3-carboxamide]
